Test results as given in patent publication US7968542B2, “Thiophene compounds and thrombopoietin receptor activators” (Nissan Chemical Industries, Ltd., priority 2005, dated 2011).

These compounds were tested on Human bone marrow CD34+ cells (assay: Megakaryocyte colony stimulating activity (megakaryocyte colony forming method)). Conditions: drug concentration 0.1 μg/mL, 11 days.
Assay type: cell-based
Procedure: The action of the compounds of Synthetic Examples 1 to 43 of the present invention and Reference Synthetic Examples 29 and 30 on the proliferation, differentiation and maturation of megakaryocyte cells was measured by the megakaryocyte colony forming method using human bone marrow cells. Human bone marrow CD34^+ cells (Cambrex Bio Science Walkersville) were incubated on 2-well chamber slide for 11 days in a CO2 incubator (5% CO2, 37° C.) using MegaCult™-C (StemCell Technologies) containing 0.1% (v/v) of the compounds of Synthetic Examples dissolved in dimethyl sulfoxide. After dehydration and fixation, the cells were stained with an anti-glycoprotein IIb/IIIa antibody in accordance with the instruction by the manufacturer. The colonies consisting of at least 8 stained megakaryocyte cells in each well were counted under a microscope. The megakaryocyte colony counts in at least 2 wells were averaged.

Q: `CC(=NNC(=O)c1ccc(C(=O)NCCCc2ccncc2)s1)c1csc(-c2ccc(Cl)c(Cl)c2)c1O` [Synthetic Ex. 40, 5-{1-[5-(3,4-dichlorophenyl)-4-hydroxythiophen-3-yl]ethylidenehydrazinocarbonyl}thiophene-2-carboxylic acid 3-(pyridin-4-yl)propylamide] was tested. Which Megakaryocyte colony count did it give?
A: 70

Q: `C/C(=N\NC(=O)c1ccc(C(=O)O)cc1)c1csc(-c2ccc(Cl)c(Cl)c2)c1O` [Reference Synthetic Ex. 29, reference compound] was tested. Which Megakaryocyte colony count did it give?
A: 2

Q: With `CC(=NNC(=O)c1ccc(C(=O)N2CCC(O)C2)s1)c1csc(-c2ccc(Cl)c(Cl)c2)c1O` (stereo not drawn) [Synthetic Ex. 42, 5-(3-hydroxypyrrolidine-1-carbonyl)thiophene-2-carboxylic acid {1-[5-(3,4-dichlorophenyl)-4-hydroxythiophen-3-yl]ethylidene}hydrazide] as the compound, how does the Megakaryocyte colony count read?
A: 90

Q: `CC(=NNC(=O)c1ccc(C(=O)NCc2cncn2C)s1)c1csc(-c2ccc(C(F)(F)F)cc2)c1O` [Synthetic Ex. 41, 5-{1-[5-(4-trifluoromethylphenyl)-4-hydroxythiophen-3-yl]ethylidenehydrazinocarbonyl}thiophene-2-carboxylic acid (1-methyl-1H-imidazol-5-ylmethyl)amide] was tested. Which Megakaryocyte colony count did it give?
A: 41

Q: With `CC(=NNC(=O)c1ccc(C(=O)NCc2cnc(C)cn2)s1)c1csc(-c2ccc(Cl)c(Cl)c2)c1O` [Synthetic Ex. 34, 5-{1-[5-(3,4-dichlorophenyl)-4-hydroxythiophen-3-yl]ethylidenehydrazinocarbonyl}thiophene-2-carboxylic acid (5-methylpyrazin-2-ylmethyl)amide] as the compound, how does the Megakaryocyte colony count read?
A: 50

Q: With `CC(=NNC(=O)c1ccc(C(=O)NCc2cc[n+]([O-])cc2)s1)c1csc(-c2ccc(Cl)c(Cl)c2)c1O` [Synthetic Ex. 39, 4-[{5-(2-[1-{5-(3,4-dichlorophenyl)-4-hydroxythiophen-3-yl}ethylidene]hydrazinocarbonyl)thiophene-2-carboxamido}methyl]pyridine 1-oxide] as the compound, how does the Megakaryocyte colony count read?
A: 86

Q: For `CC(=NNC(=O)c1ccc(C(=O)NCc2cc(C)on2)s1)c1csc(-c2ccc(Cl)c(Cl)c2)c1O` [Synthetic Ex. 33, 5-{1-[5-(3,4-dichlorophenyl)-4-hydroxythiophen-3-yl]ethylidenehydrazinocarbonyl}thiophene-2-carboxylic acid (5-methylisoxazol-3-ylmethyl)amide], which Megakaryocyte colony count is on record?
A: 53

Q: How did the Megakaryocyte colony count turn out when `CC(=NNC(=O)c1ccc(C(=O)NCc2cc(C)n(C)n2)s1)c1csc(-c2ccc(Cl)c(Cl)c2)c1O` [Synthetic Ex. 37, 5-{1-[5-(3,4-dichlorophenyl)-4-hydroxythiophen-3-yl]ethylidenehydrazinocarbonyl}thiophene-2-carboxylic acid (1,5-dimethyl-1H-pyrazol-3-ylmethyl)amide] was run?
A: 81

Q: With `COc1cc(CNC(=O)c2ccc(C(=O)NN=C(C)c3csc(-c4ccc(Cl)c(Cl)c4)c3O)s2)on1` [Synthetic Ex. 36, 5-{1-[5-(3,4-dichlorophenyl)-4-hydroxythiophen-3-yl]ethylidenehydrazinocarbonyl}thiophene-2-carboxylic acid (3-methoxyisoxazol-5-ylmethyl)amide] as the compound, how does the Megakaryocyte colony count read?
A: 102

Q: How did the Megakaryocyte colony count turn out when `CC(=NNC(=O)c1ccc(C(=O)NCc2cnccn2)s1)c1csc(-c2ccc(Cl)c(Cl)c2)c1O` [Synthetic Ex. 38, 5-{1-[5-(3,4-dichlorophenyl)-4-hydroxythiophen-3-yl]ethylidenehydrazinocarbonyl}thiophene-2-carboxylic acid (pyrazin-2-ylmethyl)amide] was run?
A: 66

Q: For `CC(=NNC(=O)c1ccc(C(=O)NC(C)C)s1)c1csc(-c2ccc(Br)cc2)c1O` [Synthetic Ex. 21, 5-{1-[5-(4-bromophenyl)-4-hydroxythiophen-3-yl]ethylidenehydrazinocarbonyl}thiophene-2-carboxylic acid isopropylamide], which Megakaryocyte colony count is on record?
A: 85

Q: With `CC(=NNC(=O)c1ccc(C(=O)N2CCCC2)s1)c1csc(-c2ccc(Cl)c(Cl)c2)c1O.[K]` [Synthetic Ex. 4, 5-(pyrrolidine-1-carbonyl)thiophene-2-carboxylic acid {1-[5-(3,4-dichlorophenyl)-4-hydroxythiophen-3-yl]ethylidene}hydrazide potassium salt] as the compound, how does the Megakaryocyte colony count read?
A: 84

Q: `C/C(=N\NC(=O)c1ccc(C(=O)O)s1)c1csc(-c2ccc(Cl)c(Cl)c2)c1O` [Reference Synthetic Ex. 30, reference compound] was tested. Which Megakaryocyte colony count did it give?
A: 12

Q: With `C/C(=N\NC(=O)c1ccc(C(=O)NCc2ccccn2)s1)c1csc(-c2ccc(OC(F)(F)F)cc2)c1O` [Synthetic Ex. 22] as the compound, how does the Megakaryocyte colony count read?
A: 96

Q: How did the Megakaryocyte colony count turn out when `CC(=NNC(=O)c1ccc(C(=O)NCc2ccnn2C)s1)c1csc(-c2ccc(Cl)c(Cl)c2)c1O` [Synthetic Ex. 32, 5-{1-[5-(3,4-dichlorophenyl)-4-hydroxythiophen-3-yl]ethylidenehydrazinocarbonyl}thiophene-2-carboxylic acid (1-methyl-1H-pyrazol-5-ylmethyl)amide] was run?
A: 55

Q: With `CC(=NNC(=O)c1ccc(C(=O)N2CCC(O)C2)s1)c1csc(-c2ccc(C(F)(F)F)cc2)c1O` (stereo not drawn) [Synthetic Ex. 43, 5-(3-hydroxypyrrolidine-1-carbonyl)thiophene-2-carboxylic acid {1-[5-(4-trifluoromethylphenyl)-4-hydroxythiophen-3-yl]ethylidene}hydrazide] as the compound, how does the Megakaryocyte colony count read?
A: 109

Same assay, conditions: drug concentration 0.3 μg/mL, 11 days

Q: `C/C(=N\NC(=O)c1ccc(C(=O)O)s1)c1csc(-c2ccc(Cl)c(Cl)c2)c1O` [Reference Synthetic Ex. 30, reference compound] was tested. Which Megakaryocyte colony count did it give?
A: 34

Same assay, conditions: drug concentration 1 μg/mL, 11 days

Q: For `C/C(=N\NC(=O)c1ccc(C(=O)O)cc1)c1csc(-c2ccc(Cl)c(Cl)c2)c1O` [Reference Synthetic Ex. 29, reference compound], which Megakaryocyte colony count is on record?
A: 31

Q: With `CCN(CC)C(=O)c1ccc(C(=O)NN=C(C)c2csc(-c3ccc(Cl)c(Cl)c3)c2O)s1.[K]` [Synthetic Ex. 3, 5-{1-[5-(3,4-dichlorophenyl)-4-hydroxythiophen-3-yl]ethylidenehydrazinocarbonyl}thiophene-2-carboxylic acid diethylamide potassium salt] as the compound, how does the Megakaryocyte colony count read?
A: 348

Q: For `CC(=NNC(=O)c1ccc(C(=O)NCc2ccco2)s1)c1csc(-c2ccc(Br)cc2)c1O` [Synthetic Ex. 19, 5-{1-[5-(4-bromophenyl)-4-hydroxythiophen-3-yl]ethylidenehydrazinocarbonyl}thiophene-2-carboxylic acid furan-2-ylmethylamide], which Megakaryocyte colony count is on record?
A: 171

Q: With `CC(=NNC(=O)c1ccc(C(=O)NC(C)C)s1)c1csc(-c2ccc(C(F)(F)F)cc2)c1O` [Synthetic Ex. 23, 5-{1-[5-(4-trifluoromethylphenyl)-4-hydroxythiophen-3-yl]ethylidenehydrazinocarbonyl}thiophene-2-carboxylic acid isopropylamide] as the compound, how does the Megakaryocyte colony count read?
A: 134

Q: With `CC(=NNC(=O)c1ccc(C(=O)N2CCOCC2)s1)c1csc(-c2ccc(Cl)c(Cl)c2)c1O.[K]` [Synthetic Ex. 2, 5-(morpholine-4-carbonyl)thiophene-2-carboxylic acid {1-[5-(3,4-dichlorophenyl)-4-hydroxythiophen-3-yl]ethylidene}hydrazide potassium salt] as the compound, how does the Megakaryocyte colony count read?
A: 239

Q: Which Megakaryocyte colony count does the source give for `CC(=NNC(=O)c1ccc(C(=O)NC(C)C)s1)c1csc(-c2ccc(C)c(C)c2)c1O` [Synthetic Ex. 28, 5-{1-[5-(3,4-dimethylphenyl)-4-hydroxythiophen-3-yl]ethylidenehydrazinocarbonyl]thiophene-2-carboxylic acid isopropylamide] here?
A: 105

Q: For `CC(=NNC(=O)c1ccc(C(=O)NCc2cccnc2)s1)c1csc(-c2ccc(Br)cc2)c1O` [Synthetic Ex. 17, 5-{1-[5-(4-bromophenyl)-4-hydroxythiophen-3-yl]ethylidenehydrazinocarbonyl}thiophene-2-carboxylic acid 3-picolylamide], which Megakaryocyte colony count is on record?
A: 146

Q: With `CC(=NNC(=O)c1ccc(C(=O)NCc2ccccn2)s1)c1csc(-c2ccc(Cl)cc2)c1O` [Synthetic Ex. 25, 5-{1-[5-(4-chlorophenyl)-4-hydroxythiophen-3-yl]ethylidenehydrazinocarbonyl]thiophene-2-carboxylic acid 2-picolylamide] as the compound, how does the Megakaryocyte colony count read?
A: 118

Q: Which Megakaryocyte colony count does the source give for `CC(=NNC(=O)c1ccc(C(=O)NCc2cccnc2)s1)c1csc(-c2ccc(Cl)cc2)c1O` [Synthetic Ex. 26, 5-{1-[5-(4-chlorophenyl)-4-hydroxythiophen-3-yl]ethylidenehydrazinocarbonyl}thiophene-2-carboxylic acid 3-picolylamide] here?
A: 182

Q: With `C/C(=N\NC(=O)c1ccc(C(=O)NCc2ccncc2)s1)c1csc(-c2ccc(Cl)cc2)c1O` [Synthetic Ex. 24, 5-{1-5-[(4-chlorophenyl)-4-hydroxythiophen-3-yl]ethylidenehydrazinocarbonyl}thiophene-2-carboxylic acid 4-picolylamide] as the compound, how does the Megakaryocyte colony count read?
A: 164

Q: Which Megakaryocyte colony count does the source give for `COc1cc(CNC(=O)c2ccc(C(=O)NN=C(C)c3csc(-c4ccc(Cl)c(Cl)c4)c3O)s2)on1` [Synthetic Ex. 36, 5-{1-[5-(3,4-dichlorophenyl)-4-hydroxythiophen-3-yl]ethylidenehydrazinocarbonyl}thiophene-2-carboxylic acid (3-methoxyisoxazol-5-ylmethyl)amide] here?
A: 135

Q: Which Megakaryocyte colony count does the source give for `CC(=NNC(=O)c1ccc(C(=O)NCc2ccncc2)s1)c1csc(-c2ccc(Br)cc2)c1O` [Synthetic Ex. 18, 5-{1-[5-(4-bromophenyl)-4-hydroxythiophen-3-yl]ethylidenehydrazinocarbonyl]thiophene-2-carboxylic acid 4-picolylamide] here?
A: 125

Q: Which Megakaryocyte colony count does the source give for `CNC(=O)c1ccc(C(=O)NN=C(C)c2csc(-c3ccc(Br)cc3)c2O)s1` [Synthetic Ex. 20, 5-{1-[5-(4-bromophenyl)-4-hydroxythiophen-3-yl]ethylidenehydrazinocarbonyl}thiophene-2-carboxylic acid methylamide] here?
A: 185

Q: For `CNC(=O)c1ccc(C(=O)NN=C(C)c2csc(-c3ccc(Cl)cc3)c2O)s1` [Synthetic Ex. 27, 5-{1-[5-(4-chlorophenyl)-4-hydroxythiophen-3-yl]ethylidenehydrazinocarbonyl}thiophene-2-carboxylic acid methylamide], which Megakaryocyte colony count is on record?
A: 201

Q: With `CC(=NNC(=O)c1ccc(C(=O)N2CCCC2)s1)c1csc(-c2ccc(Cl)c(Cl)c2)c1O.[K]` [Synthetic Ex. 4, 5-(pyrrolidine-1-carbonyl)thiophene-2-carboxylic acid {1-[5-(3,4-dichlorophenyl)-4-hydroxythiophen-3-yl]ethylidene}hydrazide potassium salt] as the compound, how does the Megakaryocyte colony count read?
A: 148

Q: With `C/C(=N\NC(=O)c1ccc(C(=O)O)s1)c1csc(-c2ccc(Cl)c(Cl)c2)c1O` [Reference Synthetic Ex. 30, reference compound] as the compound, how does the Megakaryocyte colony count read?
A: 87
